# Where a name gives a salt, the structure may show the parent alone.
# Assays:
# RORα [1] = target: T1, RORα (Homo sapiens, UniProt P35398); experiment: RORE reporter transcription in cells partially depleted of cholesterol (HPCD plus lovastatin, LDL-free serum); details: for fold induction at 10 µM: read-out: Fold induction (ROR alpha transcriptional activity); for Transcription of the RORE reporter in response to compound (in words): HPCD and lovastatin treated cells, compared to vehicle
# T1 sequence (P35398 1-556 isoform P35398-1): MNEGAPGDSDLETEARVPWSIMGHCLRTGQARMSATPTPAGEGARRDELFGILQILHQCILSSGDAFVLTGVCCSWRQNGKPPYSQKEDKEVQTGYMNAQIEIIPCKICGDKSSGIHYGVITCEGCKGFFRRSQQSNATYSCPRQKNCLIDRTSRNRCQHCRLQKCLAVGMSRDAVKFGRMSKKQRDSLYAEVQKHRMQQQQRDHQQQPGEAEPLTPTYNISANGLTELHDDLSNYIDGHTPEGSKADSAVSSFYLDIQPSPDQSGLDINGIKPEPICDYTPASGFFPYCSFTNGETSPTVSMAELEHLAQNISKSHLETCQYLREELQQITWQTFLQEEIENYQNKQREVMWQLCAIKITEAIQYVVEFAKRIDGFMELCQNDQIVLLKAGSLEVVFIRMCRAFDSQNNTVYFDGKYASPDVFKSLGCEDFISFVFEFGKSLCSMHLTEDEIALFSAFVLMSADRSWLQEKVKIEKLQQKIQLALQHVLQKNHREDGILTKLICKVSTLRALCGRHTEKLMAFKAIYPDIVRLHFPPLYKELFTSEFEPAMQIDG
# Text: We next establish whether in eukaryotic cells partially depleted of cholesterol, RORα transcriptional activity can be reconstituted by addition of cholesterol. We therefore treat the cells with hydroxypropyl-β-cyclodextrin (HPCD), a cyclodextrin derivative known to function as a cholesterol shuttle. HPCD treatment is used in experiments aiming at the partial depletion of intracellular cholesterol. In order to prevent an increase of intracellular cholesterol through the activation of the mevalonate pathway, cells are also treated with lovastatin while they are fed with a medium containing LDL-free serum.
# RORα-LBD = target: T2, RORα-LBD (Homo sapiens, UniProt P35398); experiment: Ligand exchange screening by mass spectrometry (ESI Q-Tof, non-covalent complexes); assay type: binding; details: for Displacement of cholesterol bound to the ROR-LBD (mass spectrometry): 10-fold molar excess of ligand, overnight at 4° C., protein 135 μM
# T2 construct: (His)6RORα-LBD269-556 is produced in Sf9 cells; (His)6 (N); made in house; host or cells: Sf9 insect cells
# T2 sequence (P35398 269-556 isoform P35398-1): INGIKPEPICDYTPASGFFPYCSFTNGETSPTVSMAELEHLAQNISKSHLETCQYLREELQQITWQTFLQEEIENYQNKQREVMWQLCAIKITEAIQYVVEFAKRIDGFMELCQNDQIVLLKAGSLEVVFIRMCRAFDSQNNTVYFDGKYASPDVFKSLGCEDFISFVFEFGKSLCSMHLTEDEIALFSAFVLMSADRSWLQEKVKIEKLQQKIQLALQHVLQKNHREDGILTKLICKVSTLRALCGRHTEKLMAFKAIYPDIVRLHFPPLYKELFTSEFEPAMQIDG
# Description: (His)6RORα-LBD269-556 is produced in Sf9 cells and purified by Ni-NTA chromatography followed by size exclusion chromatography. The protein in Tris-HCl buffer at a concentration of 135 μM is incubated overnight at 4° C., with a 10-fold molar excess of 25-hydroxycholesterol (5-cholesten-3beta, 25-diol) or cholesterol sulfate (5-cholesten-3beta-ol-sulfate). Prior to mass spectrometry analysis, the protein is subjected to fast buffer exchange in 50 mM ammonium acetate pH 7.0 by size exclusion chromatography using disposable Centri∘Spin 20 columns (Princeton Separations, Adelphia, N.J.) according to manufacturer′s instructions. Mass spectrometry is carried out using a Q-Tof (Micromass, Manchester, UK) quadrupole time-of-flight hybrid tandem mass spectrometer equipped with a Micromass Z-type electrospray ionization source (ESI). The acquisition mass range is typically m/z 1500-4500 in 5 seconds. The mass spectrometer is tuned in order to allow detection of multiply-charged species of non-covalent complexes. The source block temperature and desolvation temperature are kept at 50° C. and 80° C., respectively. Sample cone voltage (Vc) is set to 23 volts for standard measurements. In-source induced fragmentation experiments are performed by increasing Vc up to 100 volts. The protein solution is infused at a flow rate of 10 μl/min. Data are recorded and processed using Masslynx software. Spectra are deconvoluted using MaxEnt analysis software (Micromass, Manchester, UK).
# Generation of the construct (His)6RORα-LBD270-523, fermentation and purification are done as described above. […] The resulting solution is incubated overnight at 37° C. and further purified by size exclusion chromatography on a SPX75 column, before concentrating to 17.6 mg/ml for crystallization trials. MS determination of the native complex is done as described previously (Kallen et al., Structure, Vol.10, 1697-1707, 2002). A control experiment is done by incubating the same amount of RORα LBD protein with 5% DMSO under identical conditions. The protein concentration is approximately 15 μM in 50 mM AcONH4, pH 7.0. Both spectra are recorded under identical conditions with Vc=20 volts.
# RORα [2] = target: T1, RORα; experiment: Screen of cholesterol derivatives for binding of RORα to the RORE in essentially cholesterol-free medium; details: baculovirus-expressed RORα
# Text: The substances identified by rational design can be further analyzed in drug screening assay. The drug screening assays of the present invention may use any of a number of assays for measuring the functionality of RORα, including for the ability of RORα following ligand binding to transcriptionally regulate a gene, by increasing phosphorylation of RORα, by allowing RORα to dimerize or to heterodimerize with another nuclear receptor, by improving its ability to interact with co-activators, by changing its conformation and by increasing its ability to bind DNA. In one binding assay, a nucleic acid containing a RORα binding site is placed on a coated or onto a solid support. A preferred binding site is a response element (RORE) composed of a 6 bp AT rich motif immediately preceding a half site AGGTCA and the possible variants of this response element that are given in Giguere et al. 1994, Genes & Development 8:538-553, Mc Broom et al. 1995 Mol.Cell. Biol. 15: 796-808, Moraitis & Giguere, 1999; Molecular Endocrinology. 13:431-439. Methods for placing the nucleic acid on the solid support are well known in the art and include linking biotin to the nucleic acid and linking avidin to the solid support. The RORα is allowed to equilibrate with the nucleic acid and drugs are tested to see if they disrupt or enhance the binding. […]
# RORα [3] = target: T1, RORα; experiment: RORE-tk-luc luciferase reporter assay in U2OS cells in essentially sterol free medium, fluvastatin treatment; assay type: cell-based
# Description: Mammalian cells receive cholesterol by uptake from lipoproteins (LDL-cholesterol) and are able to synthesize cholesterol through the mevalonate pathway. In a situation where cells are cultured under conditions essentially sterol free, a key transcription factor, SREBP will be proteolytically cleaved and this releases a transcription factor to the nucleus. This transcription factor is able to transcriptionally activate HMG-CoA reductase, which is a critical step in the cholesterol biosynthesis through the mevalonate pathway. Statins, which are know drugs for hypercholesterol state are specific inhibitors of the HMG-CoA reductase. When cells are cultivated in sterol free medium, their HMG-CoA reductase is strongly activated. In this experiment cells, cultivated in medium essentially sterol free, are treated with fluvastatin. […] U2OS cells are transfected with expression vector for RORα (ROR) together with a luciferase reporter gene bearing a consensus response element for RORα (RORE-tk-luc). Luciferase activity is assayed in cells from 6 well plates and related to the activity in cells transfected with or without treatment with fluvastatin. The results are normalized to the protein content.
# [4] = compounds 10 μM, cells treated with HPCD and lovastatin, LDL-free serum, control = 1
SMILES,Fold induction (ROR alpha transcriptional activity) (RORα [1]; 10 µM),Transcription of the RORE reporter in response to compound (in words) (RORα [1]),fold induction at 10 µM (RORα [1]),also measured
"CC(C)CCC[C@@H](C)[C@H]1CC[C@H]2[C@@H]3CC=C4C[C@@H](OS(=O)(=O)O)CC[C@]4(C)[C@H]3CC[C@]12C [Chol. Sulfate, 5-cholesten-3beta-ol-sulfate]",,,5.4,"Exchange of cholesterol by cholesterol-sulfate, MS-analysis (RORα-LBD; 1.0 mM ligand, 73 μM (His)6RORαLBD270-523, overnight at 37° C.): confirmed by MS-analysis; Displacement of cholesterol bound to the ROR-LBD (mass spectrometry) (RORα-LBD; listed as cholesterol sulfate): able to fully displace cholesterol; Displacement of cholesterol bound to the ROR-LBD (mass spectrometry) (RORα-LBD; listed as cholesterol-sulfate): could be exchanged with cholesterol-sulfate; Stability of ligand/ROR-LBD complex versus in-source collisions at various cone-voltages (RORα-LBD; compared with apo-ROR-LBD, Vc up to 100 volts): more stable; Displacement of cholesterol (RORα binding to RORE screen) (RORα [2]): able to displace cholesterol"
"CC(C)CCC[C@@H](C)[C@H]1CC[C@H]2C3=CC=C4C[C@@H](O)CC[C@]4(C)[C@H]3CC[C@]12C [7-Dehydrochol, 7-Dehydrocholesterol]",,,,Fold induction (ROR alpha transcriptional activity) (RORα [1]; [4]): 4.6
"C[C@H](CCCC(C)(C)O)[C@H]1CC[C@H]2[C@@H]3CC=C4C[C@@H](O)CC[C@]4(C)[C@H]3CC[C@]12C [25-OH-Chol, 5-cholesten-3beta, 25-diol]",,,1.6,Displacement of cholesterol bound to the ROR-LBD (mass spectrometry) (RORα-LBD): able to fully displace cholesterol
CC(C)n1c(/C=C/C(O)CC(O)CC(=O)O)c(-c2ccc(F)cc2)c2ccccc21 (stereo not shown) [Fluvastatin],,,,"fold induction at 5 µM (RORα [3]; fluvastatin +5 μM, paired control 76, read-out: Fold induction (RORα transcriptional activity, luciferase)): 48; fold induction at 10 µM (RORα [3]; fluvastatin +10 μM, paired control 93, read-out: Fold induction (RORα transcriptional activity, luciferase)): 38"
CC(C)CCC[C@@H](C)[C@H]1CC[C@H]2[C@@H]3CC[C@H]4C[C@@H](O)CC[C@]4(C)[C@H]3CC[C@]12C [Cholestanol],,stimulated,,Fold induction (ROR alpha transcriptional activity) (RORα [1]; [4]): 2.4

# The next lines start with results.
Fold induction (ROR alpha transcriptional activity) (RORα [1]; 10 µM),Transcription of the RORE reporter in response to compound (in words) (RORα [1]),SMILES,fold induction at 10 µM (RORα [1]),also measured
1.2,,CC(C)CC[C@@H](O)[C@@H](C)[C@H]1CC[C@H]2[C@@H]3CC=C4C[C@@H](O)CC[C@]4(C)[C@H]3CC[C@]12C [22(R)-OH-Chol],,
1,does not trigger any increase,"CCC(CC[C@@H](C)[C@H]1CC[C@H]2[C@@H]3CC=C4C[C@@H](OC(C)=O)CC[C@]4(C)[C@H]3CC[C@]12C)C(C)C (stereo partly drawn) [5-Cholesten-24beta, 5-Cholesten-24β-ethyl-3β-ol acetate]",,
,stimulated,"CC(C)CCC[C@@H](C)[C@H]1CC[C@H]2[C@@H]3CC=C4C[C@H](O)CC[C@]4(C)[C@H]3CC[C@]12C [Epicholesterol, 5-Cholesten-3α-ol]",2.8,
1.2,,CC(C)CCC[C@](C)(O)[C@H]1CC[C@H]2[C@@H]3CC=C4C[C@@H](O)CC[C@]4(C)[C@H]3CC[C@@]21C [20(S)-OH-Chol],,
1.5,,C[C@@H](CO)CCC[C@@H](C)[C@H]1CC[C@H]2[C@@H]3CC=C4C[C@@H](O)CC[C@]4(C)[C@H]3CC[C@]12C [27-OH-Chol],,
,stimulated,"CC(C)CCC[C@@H](C)[C@H]1CC[C@H]2[C@@H]3CC=C4C[C@@H](O)CC[C@]4(C)[C@H]3CC[C@]12C [Cholesterol, cholest-5-en-3beta-ol]",3.3,
